Measured values published in patent US10919929B2, “Glucocorticoid inhibitors for treatment of prostate cancer” (Sloan-Kettering Institute for Cancer Research, priority 2013, dated 2021).

Key:
GR mRNA in LREX′ cells = GR mRNA in LREX′ cells cultured in vitro; type: cell-based, human
[1] = test system: AR target genes in LREX′ cells; test: Expression of AR target genes in LREX′ cell line in steroid depleted media (RT-qPCR); type: cell-based, human
From the text: A. Normalized expression array signal (Illumina HT-12) of a suite of 74 AR target genes in control (n=10), 4 day (n=8), and LREX′ (n=8, right) xenograft tumors. Genes are ranked by degree of restoration of expression in resistant tissue ((Res-4 day)/(Control-4 day)). All resistant tissues were continued on anti-androgen treatment through time of harvest. B. Fractional restoration values of each of the 74 AR targets in LREX′ xenografts (n=8) or resistant tissues from the validation cohort (n=12). C. GR mRNA in resistant tissues used in B. D. Expression of AR target genes in the LREX′ cell line in steroid depleted media after 8 hours of treatment with the indicated agonists, in vitro. […] A. LnCaP/AR cells engineered to express GFP or GR were treated with indicated drugs. […] D. Control or AR siRNA knock-down in LREX′ followed by treatment with indicated drugs. […] Cells were treated in charcoal stripped media. Expression determined by RT-qPCR+/−s.e.m.
LREX′ cells were derived from a single enzalutamide resistant tumor that was harvested, disaggregated with collagenase treatment, and then maintained in RPMI supplemented with 20% FBS and 1 μM enzalutamide. Cells were initially grown on collagen-coated flasks until confluent and then were maintained on standard tissue culture dishes. CS1 were similarly derived from vehicle treated tumors and maintained in standard LNCaP/AR media. LNCaP/AR and LREX′ cells were cultured in phenol-red free RPMI with 10% charcoal-stripped FBS prior to drug treatments.

[2] = test system: AR target gene expression; test: AR target gene expression with GR antagonists; type: cell-based
[3] = test system: LNCaP/AR xenograft tumors; test: LNCaP/AR xenograft pilot cohort, continual antiandrogen treatment until acquired resistance
GR = GR (Homo sapiens, UniProt P04150); settings: patients with Cushing syndrome; cited from earlier work
LnCaP/AR and sub-lines = test: In vitro growth by cell counting (Vi-cell); type: cell-based; settings: 1 micromolar enzalutamide
Method: . […] C. […] AUC=area under curve. […] .
(§1) VCaP: Cells were plated in triplicate and then assayed in triplicate at the time points indicated using CellTiter-Glo (Promega). Viability is plotted normalized to day 1. For knockdown studies, cells were infected and then plated 3 days later for the experiment without prior drug selection. LnCaP/AR and sub-lines: Equivalent numbers of cells were plated and then harvested and counted in triplicate at indicated time points using the Beckman Coulter Vi-Cell XR. Cells were passaged at each time point and identical numbers of cells re-plated. Fold increase in cell numbers were determined for each time interval.

[4] = test system: GR protein in CS1 or LnCaP/AR cells; test: Intracellular GR flow cytometry of CS1 and LnCaP/AR cells under enzalutamide; settings: enzalutamide 1 micromolar, 4 week experiment
Method: (§2) Cells were re-suspended in Fixation/Permeabilization working solution (eBioscience; San Diego, Calif., USA) at a concentration of 1-2×10^6 cells/ml for 30 minutes at room temperature. The cells were subsequently stained with primary antibodies, Rabbit (DA1E) mAb IgG XP® Isotype Control, androgen receptor (D6F11) XP® Rabbit mAb, or glucocorticoid receptor (D6H2L) XP® Rabbit mAb (Cell Signaling Technology; Danvers, Mass., USA) for 20 minutes at room temperature. The cells were washed twice with Flow Cytometry Staining Buffer (eBioscience; San Diego, Calif., USA), and then stained with secondary antibody, Allophycocyanin-AffiniPure F(ab′)2 Fragment Donkey Anti-Rabbit IgG (Jackson ImmunoResearch Laboratories, Inc.; Westgrove, Pa., USA) for 20 minutes at room temperature. Following two more washes, the cells were re-suspended in Flow Cytometry Staining Buffer and analyzed by flow cytometry on a LSRII (BD Biosciences; San Jose, Calif., USA) using FlowJo software (Tree Star, Ashland, Oreg., USA). For GR staining, cells were maintained in their standard media and treated with dexamethasone for 20 minutes prior to harvest to fully expose antigen. For AR staining, cells were cultured in charcoal stripped media without added ligands for 3 days prior to harvest.

PSA = test: Maximal PSA decline in patients receiving enzalutamide; type: in vivo; settings: enzalutamide 160 mg daily
Method: Patients were treated with enzalutamide 160 mg daily. Bone marrow biopsy and aspirate (˜5 mL) were performed before treatment and at week 8. The bone marrow specimens were obtained by transiliac biopsy, and samples were processed according to standard MD Anderson Cancer Center decalcification and fixation procedures. After pathologic evaluation, samples were stored in the MD Anderson Cancer Center Prostate Cancer Tissue Bank. Imaging studies were performed at the time of suspected prostate cancer progression or at the treating physician's discretion, but generally not prior to 12 weeks post-treatment initiation. […] Retrospective analysis for GR was performed by IHC on […] formalin-fixed, paraffin-embedded bone marrow biopsy sections with anti-GR at a dilution of 1:200 (BD Transduction Laboratories #611227). A Dako autostainer and standard 3,3-diaminobenzidine were used. GR expression was assessed in a blinded fashion by two pathologists scoring at least 100 tumor cells per specimen. […]
To determine whether GR expression is a feature of clinical antiandrogen resistance, GR expression was evaluated in bone metastases from patients receiving enzalutamide. […] Using a GR IHC assay optimized for use in bone marrow samples, the percentage of GR-positive tumor cells was quantified and the data was dichotomized based on clinical response. […]

[5] = mouse, in vivo; cited from earlier work
[6] = test system: LREX′ cells transcriptome; test: Expression profiling of LREX′ cells after DHT or Dex, AR and GR signatures; type: cell-based, human; settings: enzalutamide 10 micromolar
[7] = test system: GR protein in LREX′ cells; test: Intracellular GR flow cytometry of LREX′ cells on enzalutamide withdrawal and re-exposure; settings: LREX′off cells re-exposed to enzalutamide 1 micromolar
Method: as §2

VCaP cells = test: VCaP cell viability by CellTiter-Glo; type: cell-based; settings: Enz 10 micromolar, standard culture conditions
Method: Enz=10 micromolar, Dex=100 nM, CMP 15=1 micromolar. A. Western blot analysis of prostate cancer cell lines. B, C and D. Cell viability assessed by CellTiter-Glo (Promega) assay and normalized to day 1 value after indicated treatments+/−s.e.m. E. Confirmation of GR knock-down by western blot after infection with GR targeting shRNA. F. Apoptosis as assessed by cPARP western blot after 3 days of indicated treatment. G. A suite of AR targets relevant to VCaP was defined (see methods) and normalized expression of each gene after 24 hours of indicated drug treatments is depicted by heat map and ranked by degree of induction with Dex. H. Expression of the top two genes from B. (KLK2 and FKBP5) after 24 hours of indicated treatments+/−s.e.m.
as §1, with “interval. […]” for “interval.”

[8] = in vivo; cited from earlier work
[9] = list continues over r20-r28; cited from earlier work
[10] = steroid depleted media, 8 hours
[11] = harvest after progression on continued treatment

Sequence of GR (P04150 whole entry): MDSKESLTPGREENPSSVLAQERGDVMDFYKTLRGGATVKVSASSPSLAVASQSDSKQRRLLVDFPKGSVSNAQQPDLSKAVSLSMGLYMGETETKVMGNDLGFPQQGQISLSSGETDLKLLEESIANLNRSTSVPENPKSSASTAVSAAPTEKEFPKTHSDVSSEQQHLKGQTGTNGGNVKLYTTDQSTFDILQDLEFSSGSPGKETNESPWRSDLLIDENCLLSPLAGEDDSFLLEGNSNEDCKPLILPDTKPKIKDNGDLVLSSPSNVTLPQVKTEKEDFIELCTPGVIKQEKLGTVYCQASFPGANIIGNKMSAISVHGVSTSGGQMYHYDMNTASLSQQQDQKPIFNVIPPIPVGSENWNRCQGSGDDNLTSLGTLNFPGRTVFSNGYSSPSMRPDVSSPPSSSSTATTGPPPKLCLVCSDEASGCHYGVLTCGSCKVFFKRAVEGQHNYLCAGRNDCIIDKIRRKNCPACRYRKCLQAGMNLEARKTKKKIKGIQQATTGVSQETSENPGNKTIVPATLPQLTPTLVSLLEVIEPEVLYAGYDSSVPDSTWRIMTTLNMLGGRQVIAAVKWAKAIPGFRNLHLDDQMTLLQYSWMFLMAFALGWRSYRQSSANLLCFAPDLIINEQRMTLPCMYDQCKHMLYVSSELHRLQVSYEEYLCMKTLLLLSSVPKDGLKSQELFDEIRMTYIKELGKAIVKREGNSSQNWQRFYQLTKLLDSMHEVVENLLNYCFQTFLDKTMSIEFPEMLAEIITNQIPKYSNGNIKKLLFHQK

In the case of `C[C@]12CCC(=O)C[C@@H]1CC[C@@H]1[C@@H]2CC[C@]2(C)[C@@H](O)CC[C@@H]12` [DHT, dihydrotestosterone], the “GR mRNA levels” value (GR mRNA in LREX′ cells; LREX′, charcoal stripped media, 8 hours DHT exposure) is reported as “reduced GR mRNA levels”, the “induction of KLK3 (PSA)” value [1, 10] is reported as “comparably induced” and the “regulation of 8 genes (7 AR targets and PSA)” value [1, 10] is reported as “regulated”.
With `CC#C[C@]1(O)CC[C@H]2[C@@H]3CCC4=CC(=O)CCC4=C3[C@@H](c3ccc4c(c3)OCO4)C[C@@]21C` [ORG 34517] the “AR target gene expression” value [2] was “activate AR target gene expression”.
With `CNC(=O)c1ccc(N2C(=S)N(c3ccc(C#N)c(C(F)(F)F)c3)C(=O)C23CCC3)cc1F` [RD162] the “% Regression: D 28 Mean” value ([3]; LNCaP/AR xenografts in castrate mice, 10 mg/kg oral, day 28) was 80%, the “Day of Harvest: Mean” value [3, 11] was “D173” and the “Mean Tumor Volume (mm^3) at harvest” value [3, 11] was 554 mm^3.
In the case of `CC#C[C@]1(O)CC[C@H]2[C@@H]3CCC4=CC(=O)CCC4=C3[C@@H](c3ccc(N(C)C)cc3)C[C@@]21C` [RU486, RU-486], the “risk-benefit profile of GR inhibition in humans” value (GR) is listed as “acceptable risk-benefit profile”.
For `CNC(=O)c1ccc(N2C(=S)N(c3ccc(C#N)c(C(F)(F)F)c3)C(=O)C2(C)C)cc1F` [enzalutamide], the “antiproliferative effect in vitro” value (LnCaP/AR and sub-lines) was “weak antiproliferative effect”, the “median GR expression intensity” value [4] was “no change in median expression intensity” and the “GR mRNA levels after enzalutamide withdrawal in vitro” value (GR mRNA in LREX′ cells; LREX′ cells, FBS media without enzalutamide, 23 days) was “dropped as early as 1 day after discontinuation”. The “effect of co-treatment on DHT reduction of GR mRNA” value (GR mRNA in LREX′ cells; LREX′, 10 micromolar enzalutamide, 8 hours) was “reversed”, the “patients with maximal PSA decline greater than 50%” value (PSA; good responders (benefit > 6 months)) was 11 of 13 and the “patients with maximal PSA decline greater than 50%” value (PSA; poor responders (discontinued < 6 months)) was 1 of 14. For the same molecule, the “effect on DHT regulation of 8 AR target genes” value ([1]; enzalutamide 10 micromolar) was “blocked”, the “effect on Dex activity” value ([1]; enzalutamide 10 micromolar) was “did not notably affect” and the half-life in mice [5] was “prolonged half-life”. The “effect on Dex-induced gene expression (heatmap)” value [6] was “not impacted”, the “doubling time of GR expression induction” value [7] was 6.8 days and the “growth of VCaP cells” value (VCaP cells) was “inhibited growth”.
For `CC(C)C(=O)Nc1ccc([N+](=O)[O-])c(C(F)(F)F)c1` [flutamide], the “Distribution: Protein-binding” value [8] is listed as “Distribution: Protein-binding: 90%”, the Excretion [8] is listed as “Urine, faeces (small amounts)” and the “Adverse Drug Reactions” value [9] is listed as “Hot flushes, loss of libido, impotence,”.
